From patent US20090118274A1, “MONOCYCLIC AMINOPROPYL TETRAHYDRO-PYRAZOLO-PYRIDINE MODULATORS OF CATHEPSIN S” (priority 2007, published 2009)

Each compound was assayed against T1, Recombinant human cathepsin S (CatS) (Homo sapiens, UniProt P25774) (assay: Recombinant human cathepsin S (CatS) fluorogenic substrate inhibition assay). Conditions: not given.
T1 construct: made in house
T1 sequence (P25774 115-331): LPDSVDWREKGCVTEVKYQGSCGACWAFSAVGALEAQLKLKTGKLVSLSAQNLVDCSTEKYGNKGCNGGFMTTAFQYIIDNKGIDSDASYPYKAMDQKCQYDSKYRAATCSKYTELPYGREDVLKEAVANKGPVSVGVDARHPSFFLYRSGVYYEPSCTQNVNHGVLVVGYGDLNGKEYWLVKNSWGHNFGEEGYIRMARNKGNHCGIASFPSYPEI
Assay type: biochemical
Procedure: Recombinant human cathepsin S (CatS) was expressed in the baculovirus system and purified in one step with a thiopropyl-sepharose column. […] The assay is run in 150 mM sodium acetate pH 5.0 containing 1.5 mM DTT and 150 mM NaCl. […] Measurements are taken every min for 20 min. The rate is calculated from the slope of the increase in fluorescence and the percent inhibition is calculated from this.
`CC(=O)NCC1CCN(CC(O)Cn2nc(-c3ccc(C(F)(F)F)c(CNC(=O)C=C(C)C)c3)c3c2CCN(S(C)(=O)=O)C3)CC1` (stereo not drawn) [Example 267, 3-Methyl-but-2-enoic acid 5-(1-{3-[4-(acetylamino-methyl)-piperidin-1-yl]-2-hydroxy-propyl}-5-methanesulfonyl-4,5,6,7-tetrahydro-1H-pyrazolo[4,3-c]pyridin-3-yl)-2-trifluoromethyl-benzylamide] was tested, and the IC50 was 80 nM. Work on `CC(C)CCNCc1cc(-c2nn(CC(O)CN3CCC(NS(C)(=O)=O)CC3)c3c2CN(S(C)(=O)=O)CC3)ccc1C(F)(F)F` (stereo not drawn) [Example 283, N-{1-[2-Hydroxy-3-(5-methanesulfonyl-3-3-[(3-methyl-butylamino)-methyl]-4-trifluoromethyl-phenyl-4,5,6,7-tetrahydro-pyrazolo[4,3-c]pyridin-1-yl)-propyl]-piperidin-4-yl}-methanesulfonamide] yielded an IC50 of 800 nM.

Same assay, conditions: average of results obtained; substrate Z-Valine-Valine-Arginine-AMC 10 μM, pH 5.0; read-out: CatS IC50
With `CC(C)=CC(=O)NCc1cc(-c2nn(CC(O)CN3CCC(NS(C)(=O)=O)CC3)c3c2CN(S(C)(=O)=O)CC3)ccc1C(F)(F)F` (stereo not drawn) [Example 269, 3-Methyl-but-2-enoic acid 5-{1-[2-hydroxy-3-(4-methanesulfonylamino-piperidin-1-yl)-propyl]-5-methanesulfonyl-4,5,6,7-tetrahydro-1H-pyrazolo[4,3-c]pyridin-3-yl}-2-trifluoromethyl-benzylamide] the IC50 was 30 nM. Work on `CC(C)=CC(=O)NCc1cc(-c2nn(CC(O)CN3CCCC(CN(C)C)C3)c3c2CN(S(C)(=O)=O)CC3)ccc1C(F)(F)F` (stereo not drawn) [Example 271, 3-Methyl-but-2-enoic acid 5-{1-[3-(3-dimethylaminomethyl-piperidin-1-yl)-2-hydroxy-propyl]-5-methanesulfonyl-4,5,6,7-tetrahydro-1H-pyrazolo[4,3-c]pyridin-3-yl}-2-trifluoromethyl-benzylamide] yielded an IC50 of 580 nM. Compound `CC(C)=CC(=O)NCc1cc(-c2nn(CC(O)CN3CCC(C(C)(C)C)CC3)c3c2CN(S(C)(=O)=O)CC3)ccc1C(F)(F)F` (stereo not drawn) [Example 273, 3-Methyl-but-2-enoic acid 5-{1-[3-(4-tert-butyl-piperidin-1-yl)-2-hydroxy-propyl]-5-methanesulfonyl-4,5,6,7-tetrahydro-1H-pyrazolo[4,3-c]pyridin-3-yl}-2-trifluoromethyl-benzylamide] has an IC50 of 30 nM. For `CC(=O)NC1CCN(CC(O)Cn2nc(-c3ccc(C(F)(F)F)c(CNC(=O)CC(C)C)c3)c3c2CCN(S(C)(=O)=O)C3)C1` (stereo not drawn) [Example 278, N-(5-{1-[3-(3-Acetylamino-pyrrolidin-1-yl)-2-hydroxy-propyl]-5-methanesulfonyl-4,5,6,7-tetrahydro-1H-pyrazolo[4,3-c]pyridin-3-yl}-2-trifluoromethyl-benzyl)-3-methyl-butyramide], the IC50 was 380 nM. Work on `CC(=O)N(C)C1CCN(CC(O)Cn2nc(-c3ccc(C(F)(F)F)c(CNC(=O)CC(C)C)c3)c3c2CCN(S(C)(=O)=O)C3)C1` (stereo not drawn) [Example 279, N-[5-(1-{3-[3-(Acetyl-methyl-amino)-pyrrolidin-1-yl]-2-hydroxy-propyl}-5-methanesulfonyl-4,5,6,7-tetrahydro-1H-pyrazolo[4,3-c]pyridin-3-yl)-2-trifluoromethyl-benzyl]-3-methyl-butyramide] yielded an IC50 of 240 nM. With `CC(C)CC(=O)NCc1cc(-c2nn(CC(O)CN3CCC(NC(=O)C(F)(F)F)C3)c3c2CN(S(C)(=O)=O)CC3)ccc1C(F)(F)F` (stereo not drawn) [Example 280, N-[5-(1-{2-Hydroxy-3-[3-(2,2,2-trifluoro-acetylamino)-pyrrolidin-1-yl]-propyl}-5-methanesulfonyl-4,5,6,7-tetrahydro-1H-pyrazolo[4,3-c]pyridin-3-yl)-2-trifluoromethyl-benzyl]-3-methyl-butyramide] the IC50 was 360 nM. `CC(C)CC(=O)NCc1cc(-c2nn(CC(O)CN3CCCC3)c3c2CN(S(C)(=O)=O)CC3)ccc1C(F)(F)F` (stereo not drawn) [Example 281, N-{5-[1-(2-Hydroxy-3-pyrrolidin-1-yl-propyl)-5-methanesulfonyl-4,5,6,7-tetrahydro-1H-pyrazolo[4,3-c]pyridin-3-yl]-2-trifluoromethyl-benzyl]-3-methyl-butyramide] showed an IC50 of 370 nM. `CC(C)CC(=O)NCc1cc(-c2nn(CC(O)CN3CCC(C(C)(C)C)CC3)c3c2CN(S(C)(=O)=O)CC3)ccc1C(F)(F)F` (stereo not drawn) [Example 289, N-(5-{1-[3-(4-tert-Butyl-piperidin-1-yl)-2-hydroxy-propyl]-5-methanesulfonyl-4,5,6,7-tetrahydro-1H-pyrazolo[4,3-c]pyridin-3-yl}-2-trifluoromethyl-benzyl)-3-methyl-butyramide] showed an IC50 of 90 nM. In the case of `CS(=O)(=O)N1CCc2c(c(-c3ccc(Cl)c(CC(=O)Nc4ccc(F)cc4)c3)nn2CCCN2CCOCC2)C1` [Example 290, 2-{2-Chloro-5-[5-methanesulfonyl-1-(3-morpholin-4-yl-propyl)-4,5,6,7-tetrahydro-1H-pyrazolo[4,3-c]pyridin-3-yl]-phenyl}-N-(4-fluoro-phenyl)-acetamide], the IC50 is reported as 1850 nM. `CS(=O)(=O)N1CCc2c(c(-c3ccc(Cl)c(CC(=O)Nc4ccccc4)c3)nn2CCCN2CCOCC2)C1` [Example 291, 2-{2-Chloro-5-[5-methanesulfonyl-1-(3-morpholin-4-yl-propyl)-4,5,6,7-tetrahydro-1H-pyrazolo[4,3-c]pyridin-3-yl]-phenyl}-N-phenyl-acetamide] was tested, and the IC50 was 2850 nM. `CS(=O)(=O)N1CCc2c(c(-c3ccc(Cl)c(CCC(=O)Nc4ccccc4)c3)nn2CCCN2CCOCC2)C1` [Example 292, 3-{2-Chloro-5-[5-methanesulfonyl-1-(3-morpholin-4-yl-propyl)-4,5,6,7-tetrahydro-1H-pyrazolo[4,3-c]pyridin-3-yl]-phenyl}-N-phenyl-propionamide] gave an IC50 of 2550 nM. For `CS(=O)(=O)N1CCc2c(c(-c3ccc(Cl)c(CCC(=O)Nc4ccc(F)cc4)c3)nn2CCCN2CCOCC2)C1` [Example 293, 3-{2-Chloro-5-[5-methanesulfonyl-1-(3-morpholin-4-yl-propyl)-4,5,6,7-tetrahydro-1H-pyrazolo[4,3-c]pyridin-3-yl]-phenyl}-N-(4-fluoro-phenyl)-propionamide], the IC50 was 3000 nM. Work on `CNC(=O)CCc1cc(-c2nn(CCCN3CCOCC3)c3c2CN(S(C)(=O)=O)CC3)ccc1Cl` [Example 294, 3-{2-Chloro-5-[5-methanesulfonyl-1-(3-morpholin-4-yl-propyl)-4,5,6,7-tetrahydro-1H-pyrazolo[4,3-c]pyridin-3-yl]-phenyl}-N-methyl-propionamide] yielded an IC50 of 16500 nM. Compound `CN(C)C(=O)CCc1cc(-c2nn(CCCN3CCOCC3)c3c2CN(S(C)(=O)=O)CC3)ccc1Cl` [Example 295, 3-{2-Chloro-5-[5-methanesulfonyl-1-(3-morpholin-4-yl-propyl)-4,5,6,7-tetrahydro-1H-pyrazolo[4,3-c]pyridin-3-yl]-phenyl}-N,N-dimethyl-propionamide] has an IC50 of 4850 nM. Compound `CC1(C)CCN(CCCn2nc(-c3ccc(C(F)(F)F)c(CNCc4ccc(F)cc4)c3)c3c2CCN(C(=O)CO)C3)CC1` [Example 297, 1-(1-[3-(4,4-Dimethyl-piperidin-1-yl)-propyl]-3-{3-[(4-fluoro-benzylamino)-methyl]-4-trifluoromethyl-phenyl}-1,4,6,7-tetrahydro-pyrazolo[4,3-c]pyridin-5-yl)-2-hydroxy-ethanone] has an IC50 of 180 nM. Work on `CC(C)CC(=O)NCc1cc(-c2nn(CC(O)CN3CCC(C(C)(C)C)CC3)c3c2CN(C(=O)CO)CC3)ccc1C(F)(F)F` (stereo not drawn) [Example 298, N-{5-[1-[3-(4-tert-Butyl-piperidin-1-yl)-2-hydroxy-propyl]-5-(2-hydroxy-acetyl)-4,5,6,7-tetrahydro-1H-pyrazolo[4,3-c]pyridin-3-yl]-2-trifluoromethyl-benzyl}-3-methyl-butyramide] yielded an IC50 of 80 nM.
